{
  "source": "patent US20050009840A1",
  "about": "(SUGEN, INC., priority 2003, published 2005)",
  "data": [
    {"biological_target": "T1, HGFR (Homo sapiens, UniProt P08581)", "T1 construct": "purchased Upstate 14-526", "T1 sequence (P08581 974-1390 limits assumed)": "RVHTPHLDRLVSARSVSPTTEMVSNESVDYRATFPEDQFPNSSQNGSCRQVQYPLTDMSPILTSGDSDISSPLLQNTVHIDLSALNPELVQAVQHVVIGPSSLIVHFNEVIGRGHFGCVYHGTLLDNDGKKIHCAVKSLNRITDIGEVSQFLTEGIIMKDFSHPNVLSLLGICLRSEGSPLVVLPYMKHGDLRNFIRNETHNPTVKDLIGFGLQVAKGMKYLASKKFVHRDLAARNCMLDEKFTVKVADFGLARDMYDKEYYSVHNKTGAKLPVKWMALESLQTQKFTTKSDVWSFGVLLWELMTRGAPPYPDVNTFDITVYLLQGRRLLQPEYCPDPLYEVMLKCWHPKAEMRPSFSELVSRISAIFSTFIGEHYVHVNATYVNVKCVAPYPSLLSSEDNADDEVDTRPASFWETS", "assay": "HGFR continuous-coupled spectrophotometric assay", "type": "biochemical", "conditions": "Table 3, column 'Ki (μM) or I (%)': cells without % sign; read-out: Ki", "units": {"Ki": "µM"}, "values": [
      {"compound": "(4-{6-Amino-5-[1-(2,6- dichloro-3-fluoro-phenyl)- ethoxy]-pyridin-3-yl}- phenyl)-(4-ethyl-piperizin- 1-yl)-methanone [Example I-633]", "Ki": 0.0472}
    ]},
    {"biological_target": "T1, HGFR", "assay": "HGFR continuous-coupled spectrophotometric assay", "type": "biochemical", "conditions": "at 1 pM; Table 6, library procedure 41; read-out: % Inhibition (percent c-MET inhibition)", "units": {"inhibition at 1 pM": "%"}, "values": [
      {"compound": "Cc1nc(CCNC(=O)c2cnc(N)c(OCc3c(Cl)cccc3Cl)c2)cs1", "note": "[Example L-333]", "inhibition at 1 pM": 23},
      {"compound": "CCCN(CCO)C1CCCN(C(=O)c2cnc(N)c(OCc3c(Cl)cccc3Cl)c2)CC1", "note": "[Example L-334]", "inhibition at 1 pM": 17},
      {"compound": "Nc1ncc(C(=O)N2CCCC(N3CCOCC3)CC2)cc1OCc1c(Cl)cccc1Cl", "note": "[Example L-335]", "inhibition at 1 pM": 18},
      {"compound": "Nc1ncc(C(=O)NC2COC3(CCN(Cc4ccncc4)CC3)C2)cc1OCc1c(Cl)cccc1Cl", "note": "[Example L-336]", "inhibition at 1 pM": 20},
      {"compound": "Nc1ncc(C(=O)N2CCC(O)(CN3CCCC3=O)C2)cc1OCc1c(Cl)cccc1Cl", "note": "[Example L-337]", "inhibition at 1 pM": 20},
      {"compound": "CC(C)CCNC(=O)C1CC12CCN(C(=O)c1cnc(N)c(OCc3c(Cl)cccc3Cl)c1)CC2", "note": "[Example L-338]", "inhibition at 1 pM": 21},
      {"compound": "CN(CCc1ccccn1)CC1(O)CCN(C(=O)c2cnc(N)c(OCc3c(Cl)cccc3Cl)c2)C1", "note": "[Example L-339]", "inhibition at 1 pM": 18},
      {"compound": "Cc1cc(CCC2CC3(CCN(C(=O)c4cnc(N)c(OCc5c(Cl)cccc5Cl)c4)CC3)CO2)no1", "note": "[Example L-340]", "inhibition at 1 pM": 19},
      {"compound": "Nc1ncc(C(=O)N2CCCC(N3CCC(CO)CC3)CC2)cc1OCc1c(Cl)cccc1Cl", "note": "[Example L-341]", "inhibition at 1 pM": 20},
      {"compound": "Nc1ncc(C(=O)N2CCCC(O)(COc3cccc(F)c3)C2)cc1OCc1c(Cl)cccc1Cl", "note": "[Example L-342]", "inhibition at 1 pM": 36},
      {"compound": "Nc1ncc(C(=O)N2CCC3(CC2)COC(CCc2ccnnc2)C3)cc1OCc1c(Cl)cccc1Cl", "note": "[Example L-343]", "inhibition at 1 pM": 37},
      {"compound": "CCc1ccc(COCC2CCN(C(=O)c3cnc(N)c(OCc4c(Cl)cccc4Cl)c3)CC2)nc1", "note": "[Example L-344]", "inhibition at 1 pM": 41},
      {"compound": "Cc1ccn2cc(CNC(=O)c3cnc(N)c(OCc4c(Cl)cccc4Cl)c3)nc2n1", "note": "[Example L-345]", "inhibition at 1 pM": 45},
      {"compound": "Nc1ncc(C(=O)N2CCn3c(CO)nnc3C2)cc1OCc1c(Cl)cccc1Cl", "note": "[Example L-346]", "inhibition at 1 pM": 31},
      {"compound": "Cc1ccc2nc(CNC(=O)c3cnc(N)c(OCc4c(Cl)cccc4Cl)c3)cn2c1", "note": "[Example L-347]", "inhibition at 1 pM": 38},
      {"compound": "Nc1ncc(C(=O)N2CCC(COc3cccc4cccnc34)C2)cc1OCc1c(Cl)cccc1Cl", "note": "[Example L-348]", "inhibition at 1 pM": 35},
      {"compound": "Nc1ncc(C(=O)N2CCC3(CC2)CC3C(=O)NCC2CC2)cc1OCc1c(Cl)cccc1Cl", "note": "[Example L-349]", "inhibition at 1 pM": 32},
      {"compound": "Nc1ncc(C(=O)N2CCC3(CC2)COC(CCc2cc(O)n[nH]2)C3)cc1OCc1c(Cl)cccc1Cl", "note": "[Example L-350]", "inhibition at 1 pM": 34},
      {"compound": "Cn1ccnc1SCC1(O)CCCN(C(=O)c2cnc(N)c(OCc3c(Cl)cccc3Cl)c2)CC1", "note": "[Example L-351]", "inhibition at 1 pM": 35},
      {"compound": "CC(C)CNC(=O)c1ccc(Cl)c(CNC(=O)c2cnc(N)c(OCc3c(Cl)cccc3Cl)c2)c1", "note": "[Example L-352]", "inhibition at 1 pM": 47}
    ]},
    {"biological_target": "T2, Met kinase domain (GST fusion protein) (Homo sapiens, UniProt P08581)", "T2 construct": "Purified GST fusion protein containing the Met kinase domain", "T2 sequence (P08581 1078-1345 limits assumed)": "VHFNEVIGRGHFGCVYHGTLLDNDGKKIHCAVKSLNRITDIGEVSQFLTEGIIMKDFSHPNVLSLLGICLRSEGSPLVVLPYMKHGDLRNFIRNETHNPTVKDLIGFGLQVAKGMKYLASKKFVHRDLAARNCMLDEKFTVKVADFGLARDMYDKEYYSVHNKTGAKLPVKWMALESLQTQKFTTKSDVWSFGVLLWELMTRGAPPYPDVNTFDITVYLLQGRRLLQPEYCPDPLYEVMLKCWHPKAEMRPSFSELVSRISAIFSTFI", "assay": "Met transphosphorylation assay (ELISA, poly(glu-tyr) substrate);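 also: Cell-free ELISA with plate-bound poly(Glu:Tyr 4:1) phosphorylated by GST-fused Met kinase domain plus ATP and Mn2+, phosphotyrosine detected by anti-phosphotyrosine antibody with HRP and ABTS read-out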", "type": "biochemical", "conditions": "Table 2; read-out: Met IC50", "units": {"IC50": "µM"}, "values": [
      {"compound": "CN(C)C1CCN(C(=O)c2ccc(-c3cnc(N)c(OCc4ccc(C(C)(C)C)cc4)c3)cc2)C1", "note": "(stereo in doubt) [Example I-196, {4-[6-Amino-5-(4-tert-butyl-benzyloxy)-pyridin-3-yl]-phenyl}-[(3R)-3-dimethylamino-pyrrolidin-1-yl]-methanone]", "IC50": 4.29}
    ]},
    {"biological_target": "T2, Met kinase domain (GST fusion protein)", "assay": "Met transphosphorylation assay (ELISA, poly(glu-tyr) substrate)", "type": "biochemical", "conditions": "read-out: Met IC50", "units": {"IC50": "µM"}, "values": [
      {"compound": "Nc1ncc(-c2cccc(NS(=O)(=O)CCN3CCCC3CO)c2)nc1OCc1c(F)ccc(F)c1Cl", "note": "(stereo not shown)", "IC50": 1.38},
      {"compound": "Nc1ncc(-c2cccc(OCCN3CCOCC3)c2)cc1OCc1c(Cl)cccc1Cl", "note": "[Example I-3, 3-(2,6-Dichloro-benzyloxy)-5-[3-(2-morpholin-4-yl-ethoxy)-phenyl]-pyridin-2-ylamine]", "IC50": 0.59},
      {"compound": "Nc1ncc(-c2cccc3[nH]ccc23)cc1OCc1c(Cl)cccc1Cl", "note": "[Example I-4, 3-(2,6-Dichloro-benzyloxy)-5-(1H-indol-4-yl)-pyridin-2-ylamine]", "IC50": 1.4},
      {"compound": "Nc1ncc(-c2cccc3[nH]ccc23)cc1OCc1c(Cl)cccc1-c1cccc2[nH]ccc12", "note": "[Example I-5, 3-[2-Chloro-6-(1H-indol-4-yl)-benzyloxy]-5-(1H-indol-4-yl)-pyridin-2-ylamine]", "IC50": 4.71},
      {"compound": "CC(C)(C)OC(=O)n1cccc1-c1cnc(N)c(OCc2c(Cl)cccc2Cl)c1", "note": "[Example I-6, 2-[6-Amino-5-(2,6-dichloro-benzyloxy)-pyridin-3-yl]-pyrrole-1-carboxylic acid tert-butyl ester]", "IC50": "> 20"},
      {"compound": "Nc1ncc(-c2ccc[nH]2)cc1OCc1c(Cl)cccc1Cl", "note": "[Example I-7, 3-(2,6-Dichloro-benzyloxy)-5-(1H-pyrrol-2-yl)-pyridin-2-ylamine]", "IC50": 4.25},
      {"compound": "Nc1ncc(-c2ccc(F)cc2)cc1OCc1c(Cl)cccc1Cl", "note": "[Example I-8, 3-(2,6-Dichloro-benzyloxy)-5-(4-fluoro-phenyl)-pyridin-2-ylamine]", "IC50": 8.01},
      {"compound": "Nc1ncc(-c2ccccc2F)cc1OCc1c(Cl)cccc1Cl", "note": "[Example I-10, 3-(2 6-Dichloro-benzyloxy)-5-(2-fluoro-phenyl)-pyridin-2-ylamine]", "IC50": 6.09},
      {"compound": "Nc1ncc(-c2cccc(F)c2)cc1OCc1c(Cl)cccc1Cl", "note": "[Example I-11, 3-(2,6-Dichloro-benzyloxy)-5-(3-fluoro-phenyl)-pyridin-2-ylamine]", "IC50": 13.8},
      {"compound": "Nc1ccc(-c2cnc(N)c(OCc3c(Cl)cccc3Cl)c2)cc1", "note": "[Example I-12, 5-(4-Amino-phenyl)-3-(2,6-dichloro-benzyloxy)-pyridin-2-ylamine]", "IC50": 0.606},
      {"compound": "CS(=O)(=O)Nc1ccc(-c2cnc(N)c(OCc3c(Cl)cccc3Cl)c2)cc1", "note": "[Example I-13, N-{4-[6-Amino-5-(2,6-dichloro-benzyloxy)-pyridin-3-yl]-phenyl}-methanesulfonamide]", "IC50": 0.44},
      {"compound": "CC(=O)Nc1ccc(-c2cnc(N)c(OCc3c(Cl)cccc3Cl)c2)cc1", "note": "[Example I-14, N-{4-[6-Amino-5-(2,6-dichloro-benzyloxy)-pyridin-3-yl]-phenyl}-acetamide]", "IC50": "> 20"},
      {"compound": "Nc1ncc(-c2cccc(O)c2)cc1OCc1c(Cl)cccc1Cl", "note": "[Example I-15, 3-[6-Amino-5-(2,6-dichloro-benzyloxy)-pyridin-3-yl]-phenol]", "IC50": 1.34},
      {"compound": "COc1ccc(-c2cnc(N)c(OCc3c(Cl)cccc3Cl)c2)cc1", "note": "[Example I-16, 3-(2,6-Dichloro-benzyloxy)-5-(4-methoxy-phenyl)-pyridin-2-ylamine]", "IC50": 6.55},
      {"compound": "Nc1ncc(-c2cccc(OC(F)(F)F)c2)cc1OCc1c(Cl)cccc1Cl", "note": "[Example I-18, 3-(2,6-Dichloro-benzyloxy)- -5-(3-trifluoromethoxy-phenyl)-pyridin-2-ylamine]", "IC50": "> 20"},
      {"compound": "Nc1ncc(-c2ccccc2O)cc1OCc1c(Cl)cccc1Cl", "note": "[Example I-19, 2-[6-Amino-5-(2,6-dichloro-benzyloxy)-pyridin-3-yl]-phenol]", "IC50": 2.16},
      {"compound": "Nc1ncc(-c2ccccc2Oc2ccccc2)cc1OCc1c(Cl)cccc1Cl", "note": "[Example I-20, 3-(2,6-Dichloro-benzyloxy)-5-(2-phenoxy-phenyl)-pyridin-2-ylamine]", "IC50": "> 20"},
      {"compound": "Nc1ncc(-c2ccc(F)c(F)c2)cc1OCc1c(Cl)cccc1Cl", "note": "[Example I-21, 3-(2,6-Dichloro-benzyloxy)-5-(3,4-difluoro-phenyl)-pyridin-2-ylamine]", "IC50": 14.3},
      {"compound": "CC(C)c1cccc(-c2cnc(N)c(OCc3c(Cl)cccc3Cl)c2)c1", "note": "[Example I-22, 3-(2,6-Dichloro-benzyloxy)-5-(3-isopropyl-phenyl)-pyridin-2-ylamine]", "IC50": 15.9},
      {"compound": "Nc1ncc(-c2ccccc2C(F)(F)F)cc1OCc1c(Cl)cccc1Cl", "note": "[Example I-23, 3-(2,6-Dichloro-benzyloxy)-5-(2-trifluoromethyl-phenyl)-pyridin-2-ylamine]", "IC50": "> 20"},
      {"compound": "COc1ccccc1-c1cnc(N)c(OCc2c(Cl)cccc2Cl)c1", "note": "[Example I-24, 3-(2,6-Dichloro-benzyloxy)-5-(2-methoxy-phenyl)-pyridin-2-ylamine]", "IC50": 11.5},
      {"compound": "Nc1ncc(-c2ccc(C(F)(F)F)cc2)cc1OCc1c(Cl)cccc1Cl", "note": "[Example I-25]", "IC50": "> 20"},
      {"compound": "CS(=O)(=O)Nc1ccccc1-c1cnc(N)c(OCc2c(Cl)cccc2Cl)c1", "note": "[Example I-26, N-{2-[6-Amino-5-(2,6-dichloro-benzyloxy)-pyridin-3-yl]-phenyl}-methanesulfonamide]", "IC50": "> 20"},
      {"compound": "Nc1ncc(-c2ccc(CO)cc2)cc1OCc1c(Cl)cccc1Cl", "note": "[Example I-27, {4-[6-Amino-5-(2,6-dichloro-benzyloxy)-pyridin-3-yl]-phenyl}-methanol]", "IC50": 2.5},
      {"compound": "Nc1ncc(-c2ccc3c(c2)OCO3)cc1OCc1c(Cl)cccc1Cl", "note": "[Example I-28, 5-Benzo[1,3]dioxol-5-yl-3-(2,6-dichloro-benzyloxy)-pyridin-2-ylamine]", "IC50": 8.5},
      {"compound": "Nc1ncc(-c2ccccc2OC(F)(F)F)cc1OCc1c(Cl)cccc1Cl", "note": "[Example I-29, 3-(2,6-Dichloro-benzyloxy)-5-(2-trifluoromethoxy-phenyl)-pyridin-2-ylamine]", "IC50": "> 20"},
      {"compound": "Cc1csc(-c2cnc(N)c(OCc3c(Cl)cccc3Cl)c2)c1", "note": "[Example I-30, 3-(2,6-Dichloro-benzyloxy)-5-(4-methyl-thiophen-2-yl)-pyridin-2-ylamine]", "IC50": 3.5},
      {"compound": "Nc1ncc(-c2ccccc2OCc2ccccc2)cc1OCc1c(Cl)cccc1Cl", "note": "[Example I-31, 5-(2-Benzyloxy-phenyl)-3-(2,6-dichloro-benzyloxy)-pyridin-2-ylamine]", "IC50": "> 20"},
      {"compound": "COc1cccc(-c2cnc(N)c(OCc3c(Cl)cccc3Cl)c2)c1", "note": "[Example I-32, 3-(2,6-Dichloro-benzyloxy)-5-(3-methoxy-phenyl)-pyridin-2-ylamine]", "IC50": 4.01},
      {"compound": "Nc1ncc(-c2cc3ccccc3[nH]2)cc1OCc1c(Cl)cccc1Cl", "note": "[Example I-33, 3-(2,6-Dichloro-benzyloxy)-5-(1H-indol-2-yl)-pyridin-2-ylamine]", "IC50": 7.5}
    ]}
  ]
}
